Patent publication US9464066B2, “Deuterated compounds useful for treating neurodegenerative diseases” (PharmatrophiX, Inc., priority 2009, dated 2016)

System: hippocampal neurons
Assay: Measurement of activity relative to BDNF: prevention of degeneration of hippocampal neurons
Type: cell-based
Settings: hippocampal neurons from embryological day 16 mice, assessed 48 hours following cell seeding; BDNF maximum defined as 100%; baseline (CM) approximately 40%
Procedure: Compounds of the present application are tested for their ability to prevent the degeneration of hippocampal neurons as described in Massa et al J Neurosci. (2006) 26(20):5288-300. In brief, hippocampal neurons are isolated from embryological day 16 mice and seeded in 96-well tissue culture plates under conditions in which they degenerated in the absence of neurotrophin receptor ligands. Neuronal degeneration is assessed using morphological criteria 48 hours following cell seeding. The neurotrophins brain-derived neurotrophic factor (BDNF) and nerve growth factor (NGF) serve as positive controls. The maximum cell death preventing activity of BDNF is defined as 100% neurotrophic activity. The efficacy of NGF is 80% of that of BDNF. The neurotrophic activity of the test compounds at each applied concentration is quantitated in terms of a percentage of the maximum BDNF-supported survival level. In the presence of culture medium (CM) and the absence of BDNF or compounds, survival is approximately 40% of the BDNF maximum effect and this is regarded as baseline survival. For each compound, dose-response curves are generated and the EC50 and maximum survival percentage are derived.

Substance: NGF: neurotrophin nerve growth factor, serves as positive control in the hippocampal neuron survival assay
- efficacy (neurotrophic activity as percentage of the maximum BDNF-supported survival): 80%
